# Experimental data taken from patent US20130172318A1, “ANTI-INFLAMMATORY AGENTS” (priority 2010, published 2013).
# Legend:
# [1] = test system: endotoxin-stimulated TNF-alpha levels; test: Murine sub-lethal endotoxemia model, serum TNF-α by ELISA; format: in vivo, mouse; details: single dose 1 mg/kg p.o. one hour prior to LPS i.p.; female CD1 mice; serum two hours after challenge
# Description: The anti-inflammatory efficacy of an exemplary compound according to the present invention was tested using the murine sub-lethal endotoxemia model.
# Briefly, the method is as follows: Female CD1 mice (28-30 g, ˜7 weeks of age) were dosed with their respective treatment in sterile filtered 1% CMC by oral gavage in a dose volume of 10 ml/kg one hour prior to an endotoxin (LPS) challenge. The endotoxin challenge was injected by the intraperitoneal route containing 675,000 Endotoxin Units of LPS (E. coli strain 0111:B4 (Code L4130)) in endotoxin free PBS. Mice were left for two hours and then exsanguinated under terminal anaesthesia and blood was taken. Serum was prepared from this terminal bleed and aliquoted and stored at −20° C. Serum TNF-α levels were measured by ELISA per manufacturers instructions (R and D Systems).
# Eight animals were treated in each group, and the data for the animal with the highest and lowest TNF-α level in each group were eliminated, and the mean and standard error reported for the remaining six animals. Data for untreated animals were taken from an historical control experiment.
# [2] = test system: MCP-1 induced migration of THP-1 cells; details: MCP-1 induced THP-1 cell migration assay; disclosed in WO2005/053702; cited from earlier work
structure (smiles),measurement,setting,value
"O=C(N[C@H]1CCCNC1=O)c1ccc(F)cc1 [Example 3, (S)-4-Fluoro-N-(2-oxopiperidin-3-yl)benzamide]",inhibition of endotoxin-stimulated TNF-alpha levels,[1],50%
CCCCCCCCCCC(C)(C)C(=O)NC1CCCCNC1=O (centres unmarked) [2′2′-dimethyldodecenanoyl-3-aminocaprolactam],fold more potent as a BSCI than dodecanoyl-3-aminocaprolactam,[2],10 fold
